The test system of one data set is HER1, HER2, IGF-1R. Kind of data set: Western blot of receptor phosphorylation in skin and oropharyngeal SCC cell lines. The format is cell-based. To be noted: PAM212 cells. For orientation: A western blot detects proteins with antibodies after separation by electrophoresis.
The subject of data set [1] is MEK1/2, ERK1/2, PI3K, Akt, mTOR, p70S6K, 4EBP1. Kind of data set: Western blot of downstream MAPK-PI3K/Akt/mTOR signaling in SCC cell lines. The format is cell-based.
Procedure: (§3) After brief sonication, lysates were cleared by centrifugation at 4° C. […] After transfer to nitrocellulose membrane and blocking with 1% BSA, samples were probed with primary antibodies. Western blot images were captured using HP Scanjet G4050 and analyzed relative to G3PDH or actin using NIH Scion Image.
(§4) Antibodies against total HER1 and HER 4 and phosphorylated HER1-4, pPI3K, pAkt, pmTOR, p4E-BP1, pRaptor and pp70S6K obtained from Cell Signaling Technologies. Monoclonal antibodies to HER3 and HER4 were obtained from Thermo Scientific. Polyclonal antibody to the extracellular domain of E-cadherin and monoclonal antibody to α-actin were obtained from Santa Cruz Biotechnology. Monoclonal antibody to the extracellular domain of E-cadherin (DECMA-1) and to His Tag were obtained from Sigma and Abcam, respectively. Monoclonal antibody to G3PDH, ubiquitin and rat IgG1 were obtained from Ambion, Zymed and Southern Biotechnology, respectively.
Data set [2] deals with MCF-7, SKBR3 and MDA-MB-231 breast cancer cell lines. Kind of data set: BrdU proliferation in breast cancer cell lines. It is filed as cell-based, human. As to the method:
(§1) For BrdU staining, cells were incubated with 10 μM BrdU for 2 h prior to fixation and processed for immunofluorescence microscopy as previously described (Brouxhon et al., Cancer Res. 67:7654-64, 2007). For BrdU analyses, cells were counted from 6 low-power fields (×100) per section. BrdU incorporation was also analyzed by a cell proliferation ELISA 5-bromo-2′-deoxyuridine (BrdU) (colorimetric) kit (Roche, Stockholm, Sweden), according to the manufacturer's instructions. Migration and invasion of cells were measured using 8.0 μm pore BD BioCoat Control Insert 24-well plates (no. 354578) and Matrigel Invasion Chamber 24-well Plates (no. 354480), respectively (BD Bioscience). Cells were collected, washed, and 2×10^5 cells were plated in 0.4% FBS medium in the top chamber, with 0-20 μg/mL of rhEcad/Fc in the bottom chamber. After 22 h, cells on the top were removed using a cotton swab. Migrated or invaded cells on the lower surface were fixed with methanol, stained with 0.5% crystal violet, examined by bright field microscopy and photographed. Migration or invasion was quantitated by counting migrated or invaded cells in at least ten random high-power fields per insert and expressed as averages. Results are presented as fold change of the number of migrated/invaded cells to the untreated controls in triplicate experiments.

The test system of data set [3] is oropharyngeal FADU and skin SCC (PAM212, CC4A, SCC13 and SCC12b) cell lines. In words: Proliferation in oropharyngeal and skin SCC cell lines. The format is cell-based. As to the method:
as §1

For data set [4], the system named is skin (PAM212, CC4A, SCC12b, SCC13) and oropharyngeal (FADU) cells. In words: Transwell migration of SCC cells. It is filed as cell-based. As to the method: as §1
Data set [5] relates to skin (SCC12b, SCC13, PAM212 and CC4A) and the head & neck FADU cell line. In words: Matrigel invasion of SCC cells. The format is cell-based.
The subject of data set [6] is HER2 overexpressing BT474 cells. To be noted: cited from earlier work.
Another data set has as its system survivin. Conditions: HER2-positive tumors from patients; cited from earlier work.
In a further data set the test system is MMP-2 and MMP-9. Kind of data set: MMP-9 ELISA and gelatin zymography of conditioned media. It is filed as cell-based, mouse. To be noted: PAM212 cells; inhibitors either alone or in combination. How it is done:
Conditioned media from control or sEcad treated cells were concentrated 10-fold using Centricon devices (Millipore; Bedford, Mass.) according to the manufacturer's instructions and applied to SDS-PAGE gels containing gelatin (0.1% w/v). Gels were washed twice in renaturing buffer (Invitrogen) and incubated at 37° C. for 24 h in developing buffer (Invitrogen). Gels were stained with Coomassie blue and destained with methanol:acetic acid (50:10). Zymogram is representative of triplicate experiments.
Conditioned media from human and mouse cells were analyzed for MMP-9 using human and mouse […] Quantikine ELISA Kits and mouse MMP-9 ELISA kit (R&D Systems, Minneapolis, Minn.), according to the manufacturer's specifications, respectively. For measuring mouse MMP-9, serum-free medium was added to cell cultures and cells were exposed to increasing concentrations of sEcad (rmEcad/Fc; R&D Systems) for 24 hours. The culture media were collected and concentrated using Centrifugal Ultra Filters (Millipore, Billerica, Mass.) and MMP-9 levels were measured by ELISA. Each experiment was performed in triplicate.
On the technique in general: An ELISA detects its analyte on a solid surface through an enzyme-linked reagent.

Data set [7] has as its system HER1-4. Kind of data set: Immunoprecipitation of sEcad with HER receptors in breast cancer cells. It is filed as binding, human. The text has this: (§2) The association of sEcad with these RTK was also confirmed by in vitro studies. Specifically, in cell culture systems, extracts from sEcad (rhEcad/Fc:His tagged) treated E-cadherin positive MCF-7 and E-cadherin negative SKBR3 and MDA-MB-231 breast cancer cells were immunoprecipitated with HER1-4-specific antibodies and analyzed by western blotting with a His-tagged-specific antibody. Here, we detected HER1-4-sEcad, HER1-2-sEcad and HER1-sEcad interactions in MCF, SKBR3 and MDA-MB-231 breast cancer cells, respectively. […] Because ligand binding to the HER family of receptors induces the formation of homo- and heterodimers, resulting in phosphorylation on specific tyrosine residues within the cytoplasmic domain (Yarden and Siliwkowski, Nature Reviews. 2:127-137, 2001), we next used western blot assays to examine whether sEcad promotes HER phosphorylation and downstream signaling.
Immunoprecipitation assays were carried out by harvesting tissues or cells with immunoprecipitation lysis buffer (20 mM Tris-HCl, pH 7.5; 137 mM NaCl; 100 mM NaF; 10% glycerol (vol/vol); 1% (vol/vol) Nonidet P-40; 1 mM PMSF and protease inhibitor cocktail (Sigma)). After brief sonication, lysates were cleared by centrifugation at 4° C. […] The immunocomplexes were washed three times, boiled in sample buffer (60 mM Tris-Cl, pH 6.8; 2% SDS (vol/vol); 10% glycerol (vol/vol); 5% […] (vol/vol); and 0.01% bromophenol blue (vol/vol), and loaded on SDS-PAGE for protein analysis. Protein extraction in cells was performed on ice using total protein extraction buffer: 20 mM Tris pH 7.5, 137 mM NaCl, 100 mM NaF, 10% glycerol, 1% NP40, 1 mM PMSF and protease inhibitor cocktail (Sigma). For normal and tumor tissues, sEcad was extracted in an aqueous solution (PBS) and not in the protein extraction buffer. Protein concentration was measured using a BCA Protein Assay Kit (Pierce). […] Western blot images were captured using HP Scanjet G4050 and analyzed relative to G3PDH or actin using NIH Scion Image.

Data set [8] relates to HER1-4. Kind of data set: Western blot of HER phosphorylation in breast cancer cells. The format is cell-based, human. Conditions: MCF-7 and SKBR3 cells, 26 h after stimulation.
Excerpt: as §2
Immunoprecipitation assays were carried out by harvesting tissues or cells with immunoprecipitation lysis buffer (20 mM Tris-HCl, pH 7.5; 137 mM NaCl; 100 mM NaF; 10% glycerol (vol/vol); 1% (vol/vol) Nonidet P-40; 1 mM PMSF and protease inhibitor cocktail (Sigma)). After brief sonication, lysates were cleared by centrifugation at 4° C. […] Western blot images were captured using HP Scanjet G4050 and analyzed relative to G3PDH or actin using NIH Scion Image. […]

The test system of data set [9] is ERK1/2, PI3K/Akt, mTOR, p70S6K, 4EBP1. Kind of data set: Western blot of downstream MAPK-PI3K/Akt/mTOR signaling in breast cancer cell lines. The format is cell-based, human. From the text: We speculated that this effect may be mediated by molecular abnormalities in signaling pathways that promote cell growth downstream of HERs. Specifically, the lipid kinase phosphoinositide-3-kinase (PI3K) and the protein-serine/threonine kinases Akt, and mTOR signaling pathways are important mediators of HER receptor signaling and are causally involved in breast and other malignancies (Schmelzle and Hall, Cell 103:253-262, 2000). […] As the p70S6 kinase and eIF4E binding protein 1 (4EBP1) are among the most well characterized targets of mTOR (Schmelzle and Hall, Cell 103:253-262, 2000), we next studied the phosphorylation of p70S6K at Thr-389 and 4EBP1 at Thr-37 by western blotting.
Immunoprecipitation assays were carried out by harvesting tissues or cells with immunoprecipitation lysis buffer (20 mM Tris-HCl, pH 7.5; 137 mM NaCl; 100 mM NaF; 10% glycerol (vol/vol); 1% (vol/vol) Nonidet P-40; 1 mM PMSF and protease inhibitor cocktail (Sigma)). After brief sonication, lysates were cleared by centrifugation at 4° C. Supernatants were precleared and incubated with EGFR/HER1, HER2, HER3, HER4 or E-cadherin ectodomain-specific antibodies for 4 h and protein A/G plus agarose beads (Santa Cruz, sc-2003) for 2 h at 4° C. The immunocomplexes were washed three times, boiled in sample buffer (60 mM Tris-Cl, pH 6.8; 2% SDS (vol/vol); 10% glycerol (vol/vol); 5% […] (vol/vol); and 0.01% bromophenol blue (vol/vol), and loaded on SDS-PAGE for protein analysis. Protein extraction in cells was performed on ice using total protein extraction buffer: 20 mM Tris pH 7.5, 137 mM NaCl, 100 mM NaF, 10% glycerol, 1% NP40, 1 mM PMSF and protease inhibitor cocktail (Sigma). For normal and tumor tissues, sEcad was extracted in an aqueous solution (PBS) and not in the protein extraction buffer. Protein concentration was measured using a BCA Protein Assay Kit (Pierce). […] Western blot images were captured using HP Scanjet G4050 and analyzed relative to G3PDH or actin using NIH Scion Image. […]

In data set [10] the test system is breast (MCF-7, SKBR3) cells. In words: Transwell migration of breast cancer cells. It is filed as cell-based, human. To be noted: MCF-7 cells, 24 h, equimolar concentrations. As to the method:
as §1, with “After 22 h, cells on the top were removed using a cotton swab.” left out

The subject of data set [11] is MDA-MB-231 and MCF-7 breast cancer cells. Kind of data set: Matrigel invasion of breast cancer cells. Conditions: MCF-7 cells, 24 h, equimolar concentrations. The format is cell-based, human. How it is done: as §1, with “After 22 h, cells on the top were removed using a cotton swab.” left out
Where [12] appears, read: PAM212 skin SCC cells, HER inhibitors.
The mark [13] stands for this setting: PAM212 cells, PI3K or MEK inhibitor 20 μM.

This is an account of results in patent publication US20190008957A1, “COMBINATION THERAPIES INCLUDING INHIBITORS OF THE EXTRACELLULAR DOMAIN OF E-CADHERIN” (The Research Foundation for The State of New York, priority 2012, published 2019).

Procedure for HER1, HER2, IGF-1R: as §3, §4

On to `CS(=O)(=O)CCNCc1ccc(-c2ccc3ncnc(Nc4ccc(OCc5cccc(F)c5)c(Cl)c4)c3c2)o1` [Lapatinib], for which, in the data set on HER1, HER2, IGF-1R, the “sEcad-induced HER1 phosphorylation” value was “significantly down-regulated” and the “sEcad-induced HER2 phosphorylation (pHER2)” value is reported as “minimal changes”. Further, the phospho-IGF-1R levels result in the data set with HER1, HER2, IGF-1R (in the presence of sEcad, compared to corresponding controls) is given as “did not alter”. In [1] (PAM212 cells), the “sEcad-induced phosphorylation of 4EBP1” value is recorded as “minimal changes”; the “sEcad-induced phosphorylation of ERK1/2, Akt and p70S6K” value is “significantly down-regulated”; the “sEcad-induced phosphorylation of PI3K” value was “minimal changes”. Besides, the “basal and sEcad-induced BrdU incorporation” value in data set [2] (breast cancer cells, Canertinib 1 μM, Lapatinib 5 μM, Gefitinib 5 μM) was “significantly reduced both basal and sEcad-induced BrdU incorporation”. Further, the sEcad-induced proliferation result in data set [3] (setting [12]) was “effectively inhibited sEcad-induced proliferation, migration and invasion”. In data set [4] (setting [12]), the sEcad-induced migration entry was “effectively inhibited sEcad-induced proliferation, migration and invasion”. For the same compound, the sEcad-induced invasion result in data set [5] (setting [12]) was “effectively inhibited sEcad-induced proliferation, migration and invasion”. Besides, in [6], the apoptosis result is “induced apoptosis” and the survivin expression entry is given as “markedly reduced survivin expression”. In the data set with survivin, the “survivin expression levels in tumors” value is on record as “marked inhibition of survivin expression levels”.

With `COc1cccc(-c2cc(=O)c3ccccc3o2)c1N` [PD98059], in data set [1] (PAM212 cells, inhibitor 20 μM), the “Akt phosphorylation by sEcad in the presence of the inhibitor” value is “enhanced” and the ERK1/2 phosphorylation entry is reported as “decreased ERK1/2 phosphorylation”. Moreover, the mTOR/p70S6K/4EBP1 phosphorylation entry in [1] (PAM212 cells, inhibitor 20 μM, even in the absence of rmEcad/Fc) is listed as “increased”. For the same compound, the “sEcad-induced PAM212 proliferation” value in data set [3] (PAM212 cells, inhibitor 20 μM) is reported as “less significant effects”. Moreover, the sEcad-induced migration result in data set [4] (setting [13]) was “blocked”. Besides, the sEcad-induced invasion entry in data set [5] (setting [13]) is “blocked”. Besides, the “sEcad-induced activation of MMP-2 and MMP-9” value in the data set with MMP-2 and MMP-9 is “significantly inhibited sEcad-induced activation of MMP-2 and MMP-9”.

As for “rhEcad/Fc: Recombinant human E-cadherin Fc chimera; extracellular domain residues 155-707 fused to human IgG1 Fc, 6x histidine-tagged”, the “receptors interacting with sEcad” value is given as “HER1-4-sEcad” in the data set on HER1-4 [7] (MCF-7 cells (E-cadherin positive)), “HER1-sEcad” in the data set on HER1-4 [7] (MDA-MB-231 cells (E-cadherin negative)) and “HER1-2-sEcad” in the data set with HER1-4 [7] (SKBR3 cells (E-cadherin negative)). Moreover, in the data set on HER1-4 [8], the HER1-4 phosphorylation result is “notably increased”. Moreover, the “phosphorylated p70S6K (Thr-389) and 4EBP1 (Thr-37) levels” value in [9] (MCF-7, SKBR3 cells versus untreated controls) is listed as “higher”; in data set [1] (PAM212, CC4A cells versus untreated controls) it was “higher”. For the same compound, the “ERK1/2, PI3K/Akt and mTOR activation” value in data set [9] (MCF-7 and SKBR3 cells) was “activation of ERK1/2, PI3K/Akt and mTOR”. For the same compound, the Akt activation entry in [9] (MDA-MB-231 TNBC cells) is on record as “activation”. Also, the BrdU incorporation entry in data set [2] (10 and 20 μg/mL, MCF-7, SKBR3 and MDA-MB-231) is given as “significantly increased”. Also, the proliferation entry in [2] (MCF-7 cells, 24 h, equimolar concentrations) was “significantly increased proliferation, migration and invasion”. In addition, the migration entry in data set [10] is “significantly increased proliferation, migration and invasion”. Moreover, the invasion result in data set [11] was “significantly increased proliferation, migration and invasion”.
